Experimental data taken from patent US7829063B2, “Development of molecular imaging probes for carbonic anhydrase-IX using click chemistry” (Siemens Medical Solutions USA, Inc., priority 2007, dated 2010).

Key:
CA-IX [1] = biological target: T1, CA-IX (Homo sapiens, UniProt Q16790); assay: Binding affinity (Kd) determination for CA-IX inhibitors, DNSA fluorescence competition assay, Scatchard plots; conditions: Table 3
T1 construct: His tag (C); purchased R&D Systems Inc. 2188-CA; host or cells: mouse myeloma cell line NS0
Protocol: General. […] The human red blood cells were obtained from Research Blood Components, LLC. All absorbance measurements were performed on a SPECTRA MAX M2 plate reader at 25° C. The LC/MS analyses were performed on an Agilent 1100 series LC/MSD (SL) using a 30×2.1 mm Zorbax C8 column with a Phenomenex C18 pre-column. Compound detection was accomplished by electrospray mass spectroscopy in positive selected ion mode (LC/MS-SIM). The elution solvents were acetonitrile and water, contained 0.05% TFA. Nuclear magnetic resonance (NMR) spectra were obtained on a Bruker AMX 300 MHz spectrometer or a Varian 400. 19F NMR spectra were recorded on a Bruker AMX 282.35 MHz or a Varian 400 spectrometer. The mass spectra were recorded on an Agilent 1100 series LC/MSD with electrospray mass spectroscopic detection. Flash column chromatography was performed on Merck silica gel (40-63 μm) using the solvent system indicated. The radiochemical and chemical purities were analyzed by RP-HPLC.
General Procedure of Binding Affinity (Ka) Determination for CA-IX Inhibitors
The assay was based on the observation that the only fluorescence signal detected at 460 nm upon excitation at 290 nm, an absorption […] for DNSA, was that of the DNSA.CA complex. […] The latter were developed for each test compound using mass balance for calculating the concentration of CA bound to DNSA [DNSA.CA], bound to the non-fluorescent sample [CA.Inh] and free CA [CA] in solution. The Kd values were determined from Scatchard plots using the equation below as described by Whitesides et al. [CA.Inh]/[CA]tot.[Inh]=K11^inh−K11^inh{[CA.Inh]+[CA.DNSA]}/([CA]tot)
The terms [CA.DNSA], [CA.Inh], and free CA were calculated using the mass balance based on the known values for the dissociation constant of CA.DNSA and the total concentration of CA in each reaction.

CA-IX [2] = biological target: T1, CA-IX; assay: CA-IX combinatorial library screening, competitive fluorescence-based assay with dansylamide (DNSA); type: binding; conditions: Table 1, Libraries 1-3; sample concentrations 100 nM and 1000 nM, DNSA 200 μM; screening at 1 μM
Summary of the method: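 Recombinant His-tagged CA-IX (NS0-expressed) in phosphate buffer pH 7.4 with test compound at 100 nM or 1000 nM; competitive displacement started with 200 μM dansylamide (stock concentration). After 1 h at 25 °C, fluorescence read at 460 nm (excitation 290 nm).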

Structure (SMILES) | Kd (CA-IX [1]) | In Vitro Binding Assay (Library Screening) (CA-IX [2])
NS(=O)(=O)c1nc2ccc(OCc3cn([C@@H](Cc4ccc(OCCF)cc4)C(=O)N4CCC(C(=O)O)CC4)nn3)cc2s1 [DHK2-120] | 5 nM | 
COC(=O)[C@@H](CSCc1cccc(OCCOCCOCCF)c1)NC(=O)Cn1cc(COc2ccc3nc(S(N)(=O)=O)sc3c2)nn1 [BW2-41, (S)-methyl 3-(3-(2-(2-(2-fluoroethoxy)ethoxy)ethoxy)benzylthio)-2-(2-(4-((2-sulfamoylbenzo[d]thiazol-6-yloxy)methyl)-1H-1,2,3-triazol-1-yl)acetamido)propanoate] | 5 nM | 
NS(=O)(=O)c1nc2ccc(OCc3cn([C@@H](Cc4ccc(OCCF)cc4)C(=O)N[C@@H](Cc4c[nH]c5ccccc45)C(=O)O)nn3)cc2s1 [DHK2-180] | 14 nM | 
NS(=O)(=O)c1nc2ccc(OCc3cn(CC(=O)N(CC(=O)O)Cc4ccc(C(F)(F)F)cc4)nn3)cc2s1 [BD3-36, 2-(2-(4-((2-sulfamoylbenzo[d]thiazol-6-yloxy)methyl)-1H-1,2,3-triazol-1-yl)-N-(4-(trifluoromethyl)benzyl)acetamido)acetic acid] | 14 nM | 
C[N+](C)(C)C[C@H](O)CC(=O)NCCCC[C@@H](C(=O)NCc1ccc(C(F)(F)F)cc1)n1cc(COc2ccc3nc(S(N)(=O)=O)sc3c2)nn1 [DHK2-147] | 11 nM | 
NS(=O)(=O)c1nc2ccc(OCc3cn(CC(=O)NC(COCc4cccc(OCCNC(=O)CN(CCO)CCO)c4)C(=O)O)nn3)cc2s1 (stereo not drawn) [DHK3-158] | 14 nM | 
NS(=O)(=O)c1nc2ccc(OCc3cn([C@@H](Cc4ccccc4)C(=O)NCC4COc5ccccc5O4)nn3)cc2s1 (stereo partly drawn) [DHK2-71] | 2.5 nM | 
Cc1onc(-c2ccccc2)c1CNC(=O)[C@H](Cc1ccccc1)n1cc(COc2ccc3nc(S(N)(=O)=O)sc3c2)nn1 [DHK2-66] | 2 nM | 
NS(=O)(=O)c1nc2cc(OCc3cn(C(CCO)C(=O)NC(CSCc4cccc(OCCF)c4)C(=O)O)nn3)ccc2s1 (single isomer, unassigned) [VM2-107b] | 5 nM | 
CC(C)[C@@H](C(=O)N[C@H](Cc1ccc(C(F)(F)F)cc1)C(=O)O)n1cc(COc2ccc3nc(S(N)(=O)=O)sc3c2)nn1 [DHK2-160-F1] | 10 nM | 
CC1(C)O[C@@H](CF)[C@H](COc2ccc(CC(C(=O)NC(Cc3ccc(C(F)(F)F)cc3)C(=O)O)n3cc(COc4ccc5nc(S(N)(=O)=O)sc5c4)nn3)cc2)O1 (stereo partly drawn) [BW-139-1A] | 1.7 nM | 
N[C@@H](CO)C(=O)NCCCC[C@@H](C(=O)NCc1ccc(C(F)(F)F)cc1)n1cc(COc2ccc3nc(S(N)(=O)=O)sc3c2)nn1 [DHK2-157] | 25 nM | 
NS(=O)(=O)c1nc2ccc(OCc3cn([C@@H](CCCCNC(=O)CCC(=O)O)C(=O)NCc4ccc(C(F)(F)F)cc4)nn3)cc2s1 [BD2-47, (S)-4-oxo-4-(6-oxo-5-(4-((2-sulfamoylbenzo[d]thiazol-6-yloxy)methyl)-1H-1,2,3-triazol-1-yl)-6-(4-(trifluoromethyl)benzylamino)hexylamino)butanoic acid] | 20 nM | 
NCC1OC(C(=O)NCCOc2cccc(COCC(NC(=O)Cn3cc(COc4ccc5nc(S(N)(=O)=O)sc5c4)nn3)C(=O)O)c2)C(O)C(O)C1O (stereo not drawn) [DHK3-155] | 11 nM | 
NS(=O)(=O)c1nc2ccc(OCc3cn([C@@H](Cc4ccc(OCCF)cc4)C(=O)N[C@@H](Cc4ccc(C(F)(F)F)cc4)C(=O)O)nn3)cc2s1 [DHK2-134, (S)-2-((S)-3-(4-(2-fluoroethoxy)phenyl)-2-(4-((2-sulfamoylbenzo[d]thiazol-6-yloxy)methyl)-1H-1,2,3-triazol-1-yl)propanamido)-3-(4-(trifluoromethyl)phenyl)propanoic acid] | 0.5 nM | 
CC1(C)O[C@@H](CF)[C@H](COc2ccc(CC(C(=O)NC(Cc3ccc(C(F)(F)F)cc3)C(=O)O)n3cc(COc4ccc5nc(S(N)(=O)=O)sc5c4)nn3)cc2)O1 (stereo partly drawn) [BW-369-1B] | 2.5 nM | 
NS(=O)(=O)c1nc2ccc(OCc3cn([C@@H](Cc4ccc(OCCF)cc4)C(=O)NCc4ccc(OC(F)(F)F)cc4)nn3)cc2s1 [DHK2-176] | 5 nM | 
NS(=O)(=O)c1nc2ccc(OCc3cn([C@@H](Cc4ccc(OCCF)cc4)C(=O)NC(Cc4cccc(C(F)(F)F)c4)C(=O)O)nn3)cc2s1 (stereo partly drawn) [DHK2-181] | 2 nM | 
COC(=O)C[C@H](NC(=O)[C@H](Cc1ccc(OCCF)cc1)n1cc(COc2ccc3nc(S(N)(=O)=O)sc3c2)nn1)c1ccccc1 [DHK2-128] | 10 nM | 
CCOC(=O)C1CCN(C(=O)[C@H](C(C)C)n2cc(COc3ccc4nc(S(N)(=O)=O)sc4c3)nn2)CC1 [DHK2-41] | 5 nM | 
NS(=O)(=O)c1nc2cc(OCc3cn(C(CCO)C(=O)NC(CSCc4cccc(OCCF)c4)C(=O)O)nn3)ccc2s1 (single isomer, unassigned) [VM2-107a] | 10 nM | 
NS(=O)(=O)c1nc2ccc(OCc3cn(CC(=O)N[C@@H](Cc4ccc(OCCF)cc4)C(=O)O)nn3)cc2s1 [UG3150, (S)-3-(4-(2-fluoroethoxy)phenyl)-2-(2-(4-((2-sulfamoylbenzo[d]thiazol-6-yloxy)methyl)-1H-1,2,3-triazol-1-yl)acetamido)propanoic acid] | 3.3 nM | 
NS(=O)(=O)c1nc2ccc(OCc3cn([C@@H](Cc4ccccc4)C(=O)N4CCC(C(=O)O)CC4)nn3)cc2s1 [DHK2-94] | 10 nM | 
COC(=O)C[C@H](NC(=O)[C@H](C(C)C)n1cc(COc2ccc3nc(S(N)(=O)=O)sc3c2)nn1)c1ccc(C(F)(F)F)cc1 [DHK2-130] | 5 nM | 
NS(=O)(=O)c1nc2ccc(OCc3cn(C(Cc4ccc(F)cc4)C(=O)NC(COCc4cccc(OCCO)c4)C(=O)O)nn3)cc2s1 (single isomer, unassigned) [VM3-167B] | 10 nM | 
CC(C)[C@@H](C(=O)N[C@H](Cc1ccc(C(F)(F)F)cc1)C(=O)O)n1cc(COc2ccc3nc(S(N)(=O)=O)sc3c2)nn1 [DHK2-160-F2] | 5 nM | 
COC(=O)[C@H](C[S+]([O-])Cc1cccc(OCCF)c1)NC(=O)Cn1cc(COc2ccc3sc(S(N)(=O)=O)nc3c2)nn1 (stereo partly drawn) [VM2-126, ((2S)-methyl 3-(3-(2-fluoroethoxy)benzylsulfinyl)-2-(2-(4-((2-sulfamoylbenzo[d]thiazol-6-yloxy)methyl)-1H-1,2,3-triazol-1-yl)acetamido) propanoate] | 10 nM | 

Further lines, results first:

Kd (CA-IX [1]) | In Vitro Binding Assay (Library Screening) (CA-IX [2]) | Structure (SMILES)
25 nM | √ | NS(=O)(=O)c1nc2ccc(OCc3cn(Cc4cccc(Br)c4)nn3)cc2s1 [DHK121]
14.1 nM | √ | CC(C)C(C(=O)NCc1cc(F)ccc1F)n1cc(COc2ccc3nc(S(N)(=O)=O)sc3c2)nn1 (stereo not drawn) [DHK117]
17 nM | √ | Cc1ccnc(NC(=O)[C@H](Cc2ccccc2)n2cc(-c3ccc(S(N)(=O)=O)cc3)nn2)c1 [DHK7]
16.7 nM | √ | CCOC(=O)c1ccc(Cn2cc(COc3ccc4nc(S(N)(=O)=O)sc4c3)nn2)cc1 [DHK125]
25 nM | √ | CC(C)[C@@H](C(=O)NCc1ccco1)n1cc(COc2ccc3nc(S(N)(=O)=O)sc3c2)nn1 [DHK127]
20 nM | √ | NS(=O)(=O)c1ccc(-c2cn(Cn3nnc4ccccc43)nn2)cc1 [DHK29]
5 nM |  | NS(=O)(=O)c1nc2ccc(OCc3cn(CC(=O)N[C@@H](Cc4ccc(OCCO)cc4)C(=O)O)nn3)cc2s1 [VM4009, (S)-3-(4-(2-hydroxyethoxy)phenyl)-2-(2-(4-((2-sulfamoylbenzo[d]thiazol-6-yloxy)methyl)-1H-1,2,3-triazol-1-yl)acetamido)propanoic acid]
3.3 nM |  | CC(C)[C@@H](C(=O)N[C@@H](Cc1ccc(OCCO)cc1)C(=O)O)n1cc(COc2ccc3nc(S(N)(=O)=O)sc3c2)nn1 [VM4021, (S)-3-(4-(2-hydroxyethoxy)phenyl)-2-((S)-3-methyl-2-(4-((2-sulfamoylbenzo[d]thiazol-6-yloxy)methyl)-1H-1,2,3-triazol-1-yl)butanamido)propanoic acid]
14.1 nM |  | NS(=O)(=O)c1nc2ccc(OCc3cn(Cc4ccc(C(=O)O)cc4)nn3)cc2s1 [DHK159]
20 nM |  | Cc1cc[n+](C)c(NC(=O)[C@H](Cc2ccccc2)n2cc(-c3ccc(S(N)(=O)=O)cc3)nn2)c1 [DHK160]
1.3 nM |  | CC(C)[C@@H](C(=O)N[C@@H](Cc1ccc(OCCF)cc1)C(=O)O)n1cc(COc2ccc3nc(S(N)(=O)=O)sc3c2)nn1 [VM4037a, (S)-3-(4-(2-fluoroethoxy)phenyl)-2-((S)-3-methyl-2-(4-((2-sulfamoylbenzo[d]thiazol-6-yloxy)methyl)-1H-1,2,3-triazol-1-yl)butanamido) propanoic acid]
5 nM |  | CC(C)[C@H](C(=O)N[C@@H](Cc1ccc(OCCF)cc1)C(=O)O)n1cc(COc2ccc3nc(S(N)(=O)=O)sc3c2)nn1 [VM4037b]
